Measurements taken from ChEMBL document CHEMBL5046255, “Design and synthesis of dual inhibitors targeting snail and histone deacetylase for the treatment of solid tumour cancer” (Eur J Med Chem, 2022).

What was measured:
[1] = target: Histone deacetylase 1 (Homo sapiens, UniProt Q13547); assay: Inhibition of HDAC1 (unknown origin) using p53 (379 to 382 residues) (RHKK(Ac-AMC) as fluorogenic substrate incubated for 1 hrs by fluorescence based assay
[2] = system: HCT-116; assay: Antiproliferative activity against human HCT-116 cells assessed as cell viability at 1 uM incubated for 72 hrs by luminescence assay; assay type: functional, cell-based; conditions: for viability at 1 µM: HCT-116, dose 1 µM, time 72 hrs, read-out: Activity; for IC50: HCT-116, 72 h
[3] = system: HCT-116; assay: Antiproliferative activity against human HCT-116 cells assessed as reduction in cell viability incubated for 72 hrs by luminescence assay; assay type: functional, cell-based; conditions: HCT-116, 72 h
[4] = Binding affinity to SNAI1 (unknown origin) assessed as dissociation constant; set-up: species or system Homo sapiens
[5] = Metabolic stability in rat plasma assessed as half life at 100 uM measured upto 120 mins by LC-MS/MS analysis; assay type: ADME, cell-free
[6] = Metabolic stability in human liver microsomes assessed as half life incubated for 10 mins by LC-MS/MS analysis; assay type: ADME, Microsome
[7] = Metabolic stability in rat plasma assessed as parent compound remaining at 100 uM measured after 2 hrs by LC-MS/MS analysis; assay type: ADME, cell-free; conditions: read-out: Stability
[8] = Metabolic stability in dog liver microsomes assessed as intrinsic clearance incubated for 10 mins by LC-MS/MS analysis; assay type: ADME, Canis lupus familiaris, Microsome; conditions: read-out: CLH
[9] = Metabolic stability in monkey plasma assessed as parent compound remaining at 100 uM measured after 2 hrs by LC-MS/MS analysis; assay type: ADME, cell-free, Macaca mulatta; conditions: rhesus monkey, read-out: Stability
[10] = Metabolic stability in monkey liver microsomes assessed as half life incubated for 10 mins by LC-MS/MS analysis; assay type: ADME, Macaca mulatta, Microsome; conditions: rhesus monkey
[11] = Metabolic stability in human liver microsomes assessed as intrinsic clearance incubated for 10 mins by LC-MS/MS analysis; assay type: ADME, Microsome; conditions: read-out: CLH
[12] = Metabolic stability in human plasma assessed as parent compound remaining at 100 uM measured after 2 hrs by LC-MS/MS analysis; assay type: ADME, cell-free; conditions: read-out: Stability
[13] = Metabolic stability in rat liver microsomes assessed as intrinsic clearance incubated for 10 mins by LC-MS/MS analysis; assay type: ADME, Microsome; conditions: read-out: CLH
[14] = Metabolic stability in rat liver microsomes assessed as half life incubated for 10 mins by LC-MS/MS analysis; assay type: ADME, Microsome
[15] = Metabolic stability in dog liver microsomes assessed as half life incubated for 10 mins by LC-MS/MS analysis; assay type: ADME, Canis lupus familiaris, Microsome
[16] = Metabolic stability in dog plasma assessed as half life at 100 uM measured upto 120 mins by LC-MS/MS analysis; assay type: ADME, cell-free, Canis lupus familiaris
[17] = Metabolic stability in monkey liver microsomes assessed as intrinsic clearance incubated for 10 mins by LC-MS/MS analysis; assay type: ADME, Macaca mulatta, Microsome; conditions: rhesus monkey, read-out: CLH
[18] = Metabolic stability in dog plasma assessed as parent compound remaining at 100 uM measured after 2 hrs by LC-MS/MS analysis; assay type: ADME, cell-free, Canis lupus familiaris; conditions: read-out: Stability

Histone deacetylase 1, sequence (Q13547 whole entry, the tested form may be a part): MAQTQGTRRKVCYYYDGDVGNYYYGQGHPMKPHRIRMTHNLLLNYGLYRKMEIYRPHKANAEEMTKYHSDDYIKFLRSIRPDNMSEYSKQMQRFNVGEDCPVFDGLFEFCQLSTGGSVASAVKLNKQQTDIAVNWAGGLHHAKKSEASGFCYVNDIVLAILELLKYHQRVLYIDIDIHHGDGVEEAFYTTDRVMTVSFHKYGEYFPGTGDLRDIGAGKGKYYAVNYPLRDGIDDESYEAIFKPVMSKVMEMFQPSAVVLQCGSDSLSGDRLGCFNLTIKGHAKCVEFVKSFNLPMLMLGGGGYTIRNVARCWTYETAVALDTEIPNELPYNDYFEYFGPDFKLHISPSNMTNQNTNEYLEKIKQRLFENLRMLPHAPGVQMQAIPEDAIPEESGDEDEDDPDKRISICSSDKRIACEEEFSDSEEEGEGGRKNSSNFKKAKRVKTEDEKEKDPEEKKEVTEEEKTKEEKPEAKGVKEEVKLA

Row | IC50 [1] [nM] | Kd [4] [nM] | IC50 [2] [nM] | SMILES | viability at 1 µM [2] [%] | other results
1 | 148 | 984 | – | Nc1ccccc1NC(=O)c1ccc(CSc2nc(Nc3cc[nH]n3)c3cccn3n2)cc1 | 60.3 | IC50 [3]: 1550 nM
2 | 392 | 356 | 292 | COc1ccc(CNc2nc(SCc3ccc(C(=O)Nc4ccccc4N)cc3)nn3cccc23)cc1 | – | –
3 | – | > 10000 | 2080 | Nc1cc(F)ccc1NC(=O)c1ccc(CNC(=O)/C=C/c2cccnc2)cc1 [TUCIDINOSTAT] | – | half-life at 100 µM [5]: 8.83 h; half-life [6]: 6.27 h; remaining at 2 h, 100 µM [7]: 82.1%; microsomal CLint [8]: 2.76 µL/min/mg; remaining at 2 h, 100 µM [9]: 102%; half-life [10]: 2.05 h; microsomal CLint [11]: 4.18 µL/min/mg; remaining at 2 h, 100 µM [12]: 109%; microsomal CLint [13]: 7.35 µL/min/mg; half-life [14]: 3.17 h; half-life [15]: 8.37 h; half-life at 100 µM [16]: 16.3 h; microsomal CLint [17]: 11.2 µL/min/mg; remaining at 2 h, 100 µM [18]: 103%
4 | 871 | – | – | CC(C)(C)OC(=O)N1CCC(Nc2nc(SCc3ccc(C(=O)Nc4ccccc4N)cc3)nn3cccc23)CC1 | 103 | –
5 | 5040 | 514 | 997 | COc1ccc(CNc2nc(SCc3ccc(C(=O)Nc4ccc(F)cc4N)cc3)nn3cccc23)cc1 | – | –
6 | > 10000 | – | – | Nc1cc(F)ccc1NC(=O)c1ccc(CSc2nc(NCc3ccc(C(F)(F)F)cc3)c3cccn3n2)cc1 | 107 | –
7 | 1540 | – | – | CC(C)(C)c1cc(Nc2nc(SCc3ccc(C(=O)Nc4ccc(F)cc4N)cc3)nn3cccc23)n[nH]1 | 108 | –
8 | 595 | 426 | 731 | Nc1cc(F)ccc1NC(=O)c1ccc(CSc2nc(Nc3cc[nH]n3)c3cccn3n2)cc1 | – | –
9 | 336 | – | – | COc1ccc(CNc2nc(SCc3ccc(C(=O)Nc4ccccc4N)cc3)nn3cccc23)c(OC)c1 | 92.5 | –
10 | 406 | – | – | COc1ccc(CNc2nc(SCc3ccc(C(=O)Nc4ccccc4N)cc3)nn3cccc23)cc1OC | 73.9 | –
11 | 2370 | – | – | Nc1cc(F)ccc1NC(=O)c1ccc(CSc2nc(NC3CCNCC3)c3cccn3n2)cc1 | 95.8 | –
12 | > 10000 | – | – | Nc1cc(F)ccc1NC(=O)c1ccc(CSc2nc(NCc3ccc(F)cc3)c3cccn3n2)cc1 | 89.3 | –
13 | 8160 | – | – | COc1ccc(CNc2nc(SCc3ccc(C(=O)Nc4ccc(F)cc4N)cc3)nn3cccc23)cc1OC | 73.9 | –
14 | 204 | 945 | 1370 | Cc1cccnc1Nc1nc(SCc2ccc(C(=O)Nc3ccccc3N)cc2)nn2cccc12 | – | –
15 | 1730 | – | – | Nc1ccccc1NC(=O)c1ccc(CSc2nc(NCc3ccc(C(F)(F)F)cc3)c3cccn3n2)cc1 | 102 | –
16 | 1320 | 875 | 857 | Cc1cccnc1Nc1nc(SCc2ccc(C(=O)Nc3ccc(F)cc3N)cc2)nn2cccc12 | – | –
17 | 493 | – | – | Nc1ccccc1NC(=O)c1ccc(CSc2nc(NC3CCNCC3)c3cccn3n2)cc1 | 78.5 | –
18 | 204 | 905 | 1090 | Nc1ccccc1NC(=O)c1ccc(CSc2nc(N3CCOCC3)c3cccn3n2)cc1 | – | –
19 | 4500 | – | – | CC(C)(C)OC(=O)N1CCC(Nc2nc(SCc3ccc(C(=O)Nc4ccc(F)cc4N)cc3)nn3cccc23)CC1 | 105 | –
20 | 481 | – | – | Nc1ccccc1NC(=O)c1ccc(CSc2nc(NCc3ccc(F)cc3)c3cccn3n2)cc1 | 83.1 | –
21 | 238 | – | – | CC(C)(C)c1cc(Nc2nc(SCc3ccc(C(=O)Nc4ccccc4N)cc3)nn3cccc23)n[nH]1 | 96.1 | –
22 | > 10000 | – | – | COc1ccc(CNc2nc(SCc3ccc(C(=O)Nc4ccc(F)cc4N)cc3)nn3cccc23)c(OC)c1 | 92.5 | –
23 | 2310 | 754 | 948 | Nc1cc(F)ccc1NC(=O)c1ccc(CSc2nc(N3CCOCC3)c3cccn3n2)cc1 | – | –
24 | 152 | 562 | 959 | Cc1cc(Nc2nc(SCc3ccc(C(=O)Nc4ccccc4N)cc3)nn3cccc23)n[nH]1 | – | –
